Experimental data published in patent US20210238192A1, “VASCULAR ADHESION PROTEIN-1 (VAP-1) MODULATORS AND THERAPEUTIC USES THEREOF” (Blade Therapeutics, Inc., priority 2018, published 2021).

Experiments:
Type in all cases: biochemical
Human VAP-1 = molecular target: T1, Human VAP-1 (Homo sapiens, UniProt Q16853); assay: VAP-1 inhibition assay (Amplex Red continuous fluorescence assay); conditions: 30 min pre-incubation at 37° C.; substrate benzylamine; read-out: Human VAP-1 IC50
T1 sequence (Q16853 1-763): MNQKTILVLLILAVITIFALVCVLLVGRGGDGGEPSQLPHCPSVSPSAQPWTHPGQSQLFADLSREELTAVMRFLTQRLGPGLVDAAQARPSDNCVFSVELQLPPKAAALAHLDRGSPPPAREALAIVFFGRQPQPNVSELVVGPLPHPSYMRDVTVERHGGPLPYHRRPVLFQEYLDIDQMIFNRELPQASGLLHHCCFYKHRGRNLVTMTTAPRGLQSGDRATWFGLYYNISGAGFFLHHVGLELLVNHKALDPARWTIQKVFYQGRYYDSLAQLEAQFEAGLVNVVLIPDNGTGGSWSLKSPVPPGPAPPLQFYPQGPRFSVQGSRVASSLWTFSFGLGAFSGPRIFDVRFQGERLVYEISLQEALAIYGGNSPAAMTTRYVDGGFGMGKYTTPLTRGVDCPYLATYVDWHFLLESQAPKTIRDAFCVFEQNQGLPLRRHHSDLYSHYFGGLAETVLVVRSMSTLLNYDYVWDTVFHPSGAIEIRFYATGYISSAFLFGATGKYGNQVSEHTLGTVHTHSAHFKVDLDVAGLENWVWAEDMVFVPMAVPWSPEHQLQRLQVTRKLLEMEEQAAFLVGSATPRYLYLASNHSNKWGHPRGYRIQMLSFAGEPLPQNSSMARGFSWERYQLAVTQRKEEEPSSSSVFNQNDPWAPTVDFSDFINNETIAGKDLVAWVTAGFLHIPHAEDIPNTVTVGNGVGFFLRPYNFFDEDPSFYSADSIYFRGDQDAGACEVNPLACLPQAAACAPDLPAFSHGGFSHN
Outline: (§1)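 Continuous Amplex Red/HRP fluorescence read of H2O2 (ex/em 510/565 nm, 5 min). Substrates and buffers: VAP-1 benzylamine, […] sodium phosphate pH 7.4, 30 min 37° C preincubation; MAO-A tyramine and MAO-B benzylamine, same buffer, room temp; DAO histamine, 50 mM HEPES pH 7.5, room temp. IC50 from 4-parameter fit of rates.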

Human MAO-A = molecular target: T2, Human MAO-A (Homo sapiens, UniProt P21397); assay: MAO-A inhibition (Amplex Red continuous fluorescence assay); conditions: 30 min pre-incubation at room temp; substrate tyramine; read-out: Human MAO-A IC50
T2 sequence (P21397 1-527): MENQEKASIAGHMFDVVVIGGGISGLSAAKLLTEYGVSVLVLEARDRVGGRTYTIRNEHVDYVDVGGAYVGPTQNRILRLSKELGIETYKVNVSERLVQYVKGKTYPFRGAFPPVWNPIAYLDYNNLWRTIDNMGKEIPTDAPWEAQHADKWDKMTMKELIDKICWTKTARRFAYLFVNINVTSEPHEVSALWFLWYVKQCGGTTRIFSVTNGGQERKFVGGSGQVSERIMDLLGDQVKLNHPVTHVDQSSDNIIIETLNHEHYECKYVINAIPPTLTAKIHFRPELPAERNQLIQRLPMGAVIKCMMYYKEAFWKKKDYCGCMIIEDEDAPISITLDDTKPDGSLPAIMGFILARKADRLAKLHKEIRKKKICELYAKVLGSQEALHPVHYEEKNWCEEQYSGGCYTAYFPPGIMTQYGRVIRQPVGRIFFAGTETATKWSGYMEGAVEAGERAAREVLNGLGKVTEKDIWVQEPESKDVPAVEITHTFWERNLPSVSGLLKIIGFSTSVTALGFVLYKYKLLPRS
Outline: as §1

Human MAO-B = molecular target: T3, Human MAO-B (Homo sapiens, UniProt P27338); assay: MAO-B inhibition (Amplex Red continuous fluorescence assay); conditions: 30 min pre-incubation at room temp; substrate benzylamine; read-out: Human MAO-B IC50
T3 sequence (P27338 1-520): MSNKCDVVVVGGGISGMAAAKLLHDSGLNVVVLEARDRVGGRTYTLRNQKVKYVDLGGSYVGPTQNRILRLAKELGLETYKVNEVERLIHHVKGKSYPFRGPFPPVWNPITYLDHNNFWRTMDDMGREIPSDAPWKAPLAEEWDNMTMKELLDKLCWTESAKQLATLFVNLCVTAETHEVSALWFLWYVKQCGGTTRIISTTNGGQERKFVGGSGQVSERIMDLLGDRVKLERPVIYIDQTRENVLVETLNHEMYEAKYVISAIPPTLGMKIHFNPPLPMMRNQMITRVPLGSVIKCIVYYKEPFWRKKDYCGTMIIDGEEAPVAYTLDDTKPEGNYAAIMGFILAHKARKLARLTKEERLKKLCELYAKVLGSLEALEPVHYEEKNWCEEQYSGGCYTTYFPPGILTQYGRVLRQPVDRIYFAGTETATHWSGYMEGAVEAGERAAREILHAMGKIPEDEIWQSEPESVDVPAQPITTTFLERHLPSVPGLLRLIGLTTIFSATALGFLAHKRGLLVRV
Outline: as §1

Human DAO = molecular target: T4, Human DAO (Homo sapiens, UniProt P19801); assay: DAO inhibition (Amplex Red continuous fluorescence assay); conditions: 30 min pre-incubation at room temp; substrate histamine; read-out: Human DAO IC50
T4 sequence (P19801 20-751): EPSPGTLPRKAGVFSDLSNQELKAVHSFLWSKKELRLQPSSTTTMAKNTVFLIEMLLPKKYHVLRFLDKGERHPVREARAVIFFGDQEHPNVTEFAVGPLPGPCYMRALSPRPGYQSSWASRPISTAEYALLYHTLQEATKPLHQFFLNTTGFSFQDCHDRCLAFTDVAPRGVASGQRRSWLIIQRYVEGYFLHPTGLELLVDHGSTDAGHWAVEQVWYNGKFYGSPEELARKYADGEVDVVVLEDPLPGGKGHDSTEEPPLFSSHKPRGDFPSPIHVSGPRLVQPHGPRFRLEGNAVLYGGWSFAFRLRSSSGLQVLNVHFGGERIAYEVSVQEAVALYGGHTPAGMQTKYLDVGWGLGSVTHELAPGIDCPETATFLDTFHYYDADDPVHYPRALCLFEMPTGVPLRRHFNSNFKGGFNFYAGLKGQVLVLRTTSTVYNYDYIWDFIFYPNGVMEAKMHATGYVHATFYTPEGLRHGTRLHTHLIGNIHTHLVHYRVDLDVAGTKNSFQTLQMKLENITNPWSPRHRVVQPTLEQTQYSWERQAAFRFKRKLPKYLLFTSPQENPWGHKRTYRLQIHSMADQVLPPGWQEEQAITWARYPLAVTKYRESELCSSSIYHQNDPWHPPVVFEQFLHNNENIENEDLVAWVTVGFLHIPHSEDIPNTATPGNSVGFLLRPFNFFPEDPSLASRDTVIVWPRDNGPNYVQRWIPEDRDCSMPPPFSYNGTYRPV
Outline: as §1

Row | IC50 (Human VAP-1) | IC50 (Human MAO-A) | IC50 (Human MAO-B) | IC50 (Human DAO) | SMILES
1 | < 3 µM | < 3 µM | < 3 µM | < 3 µM | NC/C(=C/F)COC(=O)Nc1ccccc1 [Compound 68, (Z)-2-(aminomethyl)-3-fluoroalkyl phenylcarbamate]
2 | < 3 µM | > 10 µM | < 3 µM | > 10 µM | CC(C)(C)NC(=O)c1cccc2c1ccn2CC(=CF)CN [Compound 69, 1-(2-(aminomethyl)-3-fluoroalkyl)-N-(tert-butyl)-1H-indole-4-carboxamide]
3 | < 3 µM | < 3 µM | > 10 µM | 3 to 10 µM | NC/C(=C\F)CNC(=O)Nc1ccccc1 [Compound 71]
4 | < 3 µM | < 3 µM | > 10 µM | < 3 µM | NC/C(=C/F)CNC(=O)Nc1ccccc1 [Compound 72]
5 | < 3 µM | > 10 µM | > 10 µM | < 3 µM | NC/C(=C\F)COc1ccc(C(=O)NCCOCCOCCOCCOCCOCCOCCOCCOCCOCCOCCOCCNC(=O)CCCCC2SCC3NC(=O)NC32)cc1 (stereo not shown) [Compound 78]
6 | < 3 µM | > 10 µM | 3 to 10 µM | < 3 µM | NC/C(=C\F)COc1cnc(N2CC[C@H](O)C2)nc1 [Compound 79]
7 | < 3 µM | > 10 µM | > 10 µM | < 3 µM | NC/C(=C/F)COc1cnc(N2CC[C@H](O)C2)nc1 [Compound 80]
8 | < 3 µM | > 10 µM | > 10 µM | < 3 µM | CO[C@H]1CCN(c2ncc(OC/C(=C/F)CN)cn2)C1 [Compound 81]
9 | < 3 µM | 3 to 10 µM | < 3 µM | 3 to 10 µM | CCC(=O)Nc1ccc(OC/C(=C/F)CN)cc1 [Compound 82, (E)-N-(4-((2-(aminomethyl)-3-fluoroalkyl)oxy)phenyl)propionamide]

Row | SMILES | IC50 (Human VAP-1) | IC50 (Human MAO-A) | IC50 (Human MAO-B) | IC50 (Human DAO)
10 | CC(C)(C)NC(=O)c1cn(CC(=CF)CN)c2ccccc12 [Compound 70, 1-(2-(aminomethyl)-3-fluoroalkyl)-N-(tert-butyl)-1H-indole-3-carboxamide] | < 3 µM | < 3 µM | > 10 µM | > 10 µM
